Laboratory results: article PMC11823609, “Advancements in the fight against globally distributed OXA-48 carbapenemase: evaluating the new generation of carbapenemase inhibitors” (Antimicrobial Agents and Chemotherapy, 2025)

Experiments:
Assay in all cases: microbe, parasite or virus in culture
[1] = system: E. coli HB4 ΔompC/F (CTX-M-14 + OXA-48); type: cell-based, Escherichia coli
In short: (§1)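 Read-out is the MIC, taken from triplicate runs and interpreted by EUCAST 13.0 breakpoints. Strains were E. coli TG1 and the porin-deficient HB4 carrying OXA-48, some also carrying CTX-M-14. Inhibitors were fixed at 4 mg/L beside ertapenem or ceftazidime reporters.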

[2] = system: E. coli HB4 ΔompC/F (OXA-48); type: cell-based, Escherichia coli; conditions: Escherichia coli
In short: as §1

[3] = system: E. coli HB4 ΔompC/F; type: cell-based, Escherichia coli; conditions: Escherichia coli
In short: as §1

[4] = system: E. coli TG1 (OXA-48); type: cell-based, Escherichia coli; conditions: Escherichia coli
In short: as §1

[5] = system: K. pneumoniae strain 413 (MLST 147, ESBL); type: cell-based; conditions: Klebsiella pneumoniae
In short: (§2)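 MICs in triplicate against OXA-48-positive Enterobacterales clinical isolates, interpreted by EUCAST 13.0 breakpoints. Inhibitors at 4 mg/L combined with ertapenem or ceftazidime as reporter substrates; MICs of each compound alone also determined.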

[6] = system: K. pneumoniae strain 23 (MLST 392, ESBL); type: cell-based; conditions: Klebsiella pneumoniae
In short: as §2

[7] = system: K. pneumoniae strain 238 (MLST 15, ESBL); type: cell-based; conditions: Klebsiella pneumoniae
In short: as §2

[8] = system: E. coli strain 177 (MLST 131, ESBL); type: cell-based; conditions: Escherichia coli
In short: as §2

[9] = system: E. cloacae strain 281 (MLST 78, No ESBL); type: cell-based; conditions: Enterobacter cloacae
In short: as §2

[10] = system: E. cloacae strain 231 (MLST 171, No ESBL); type: cell-based; conditions: Enterobacter cloacae
In short: as §2

[11] = system: K. pneumoniae strain 125 (MLST 307, ESBL); type: cell-based; conditions: Klebsiella pneumoniae
In short: as §2

[12] = system: E. coli strain 224 (MLST 127, No ESBL); type: cell-based; conditions: Escherichia coli; E. coli 224; β-lactamase inhibitor alone; read-out: MIC
In short: as §2

[13] = system: K. pneumoniae strain 237 (MLST 147, No ESBL); type: cell-based; conditions: Klebsiella pneumoniae; K. pneumoniae 237; β-lactamase inhibitor alone; read-out: MIC
In short: as §2

[14] = system: K. pneumoniae strain 497 (MLST 11, No ESBL); type: cell-based; conditions: Klebsiella pneumoniae; K. pneumoniae 497; β-lactamase inhibitor alone; read-out: MIC
[15] = system: E. coli strain 103 (MLST 10, ESBL); type: cell-based; conditions: Escherichia coli
In short: as §2

[16] = system: E. cloacae strain 235 (MLST 171, ESBL); type: cell-based; conditions: Enterobacter cloacae
In short: as §2

[17] = system: E. coli strain 264 (MLST 131, No ESBL); type: cell-based; conditions: Escherichia coli; E. coli 264; β-lactamase inhibitor alone; read-out: MIC
In short: as §2

[18] = system: K. pneumoniae strain 170 (MLST 307, No ESBL); type: cell-based; conditions: Klebsiella pneumoniae; K. pneumoniae 170; β-lactamase inhibitor alone; read-out: MIC
In short: as §2

[19] = system: K. pneumoniae strain 19 (MLST 11, ESBL); type: cell-based; conditions: Klebsiella pneumoniae
In short: as §2

[20] = system: K. pneumoniae strain 194 (MLST 392, No ESBL); type: cell-based; conditions: Klebsiella pneumoniae; K. pneumoniae 194; β-lactamase inhibitor alone; read-out: MIC
In short: as §2

[21] = system: E. cloacae strain 272 (MLST 78, ESBL); type: cell-based; conditions: Enterobacter cloacae
In short: as §2

[22] = system: K. pneumoniae strain 71 (MLST 15, No ESBL); type: cell-based; conditions: Klebsiella pneumoniae; K. pneumoniae 71; β-lactamase inhibitor alone; read-out: MIC
In short: as §2

`NCCN[C@H]1CC[C@H](CC(=O)N[C@H]2Cc3cccc(C(=O)O)c3OB2O)CC1` [Taniborbactam, taniborbactam] was tested, and the “decrease of ertapenem MIC with BLI” value ([1]; E. coli HB4 coproducing CTX-M-14 and OXA-48, BLI 4 mg/L) was 8 fold, the MIC ([1]; Escherichia coli) was ≥ 128 µg/mL and the MIC [2] was ≥ 128 µg/mL. The MIC [3] was ≥ 128 µg/mL, the MIC [4] was ≥ 128 µg/mL and the MIC [5] was ≥ 128 µg/mL. For the same molecule, the MIC [6] was ≥ 128 µg/mL, the MIC [7] was ≥ 128 µg/mL and the MIC [8] was ≥ 128 µg/mL. For the same molecule, the MIC [9] was ≥ 128 µg/mL, the MIC [10] was ≥ 128 µg/mL and the MIC [11] was ≥ 128 µg/mL. The MIC [12] was ≥ 128 µg/mL, the MIC [13] was ≥ 128 µg/mL and the MIC [14] was ≥ 128 µg/mL. For the same molecule, the MIC [15] was ≥ 128 µg/mL, the MIC [16] was ≥ 128 µg/mL and the MIC [17] was ≥ 128 µg/mL. For the same molecule, the MIC [18] was ≥ 128 µg/mL, the MIC [19] was ≥ 128 µg/mL and the MIC [20] was ≥ 128 µg/mL. The MIC [21] was ≥ 128 µg/mL and the MIC [22] was ≥ 128 µg/mL.
